Results on 7 molecules are retold here after ChEMBL document CHEMBL2074330, “Identification of glutathione as a driving force and leukotriene C4 as a substrate for oatp1, the hepatic sinusoidal organic solute transporter” (J Biol Chem, 1998).

Series [1] deals with T1, Solute carrier organic anion transporter family member 1A1 (Rattus norvegicus, UniProt P46720).
T1 sequence (P46720 whole entry): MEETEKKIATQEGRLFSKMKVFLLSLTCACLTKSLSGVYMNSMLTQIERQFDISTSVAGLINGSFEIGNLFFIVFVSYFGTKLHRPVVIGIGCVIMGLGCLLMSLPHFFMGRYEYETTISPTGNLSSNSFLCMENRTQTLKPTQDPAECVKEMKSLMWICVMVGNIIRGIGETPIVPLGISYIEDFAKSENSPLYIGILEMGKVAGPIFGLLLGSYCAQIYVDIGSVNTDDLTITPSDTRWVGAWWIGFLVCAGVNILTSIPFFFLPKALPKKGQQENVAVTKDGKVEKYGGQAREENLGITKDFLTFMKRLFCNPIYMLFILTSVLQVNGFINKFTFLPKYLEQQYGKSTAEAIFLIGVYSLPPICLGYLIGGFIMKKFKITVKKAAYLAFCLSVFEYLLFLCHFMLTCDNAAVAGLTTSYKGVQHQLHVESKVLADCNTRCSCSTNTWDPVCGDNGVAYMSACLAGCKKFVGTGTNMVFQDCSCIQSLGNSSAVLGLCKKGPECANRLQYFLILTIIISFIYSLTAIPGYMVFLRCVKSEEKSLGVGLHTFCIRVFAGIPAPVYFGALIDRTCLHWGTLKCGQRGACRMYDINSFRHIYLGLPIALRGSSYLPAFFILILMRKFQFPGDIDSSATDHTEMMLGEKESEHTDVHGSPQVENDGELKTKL
Description: TP_TRANSPORTER: inhibition of DNP-SG uptake (DNP-SG: 50 uM, p-Chlorophenacyl-SG: 1000 uM) in Xenopus laevis oocytes. In kind it is functional, cell-based, Oocyte. More on the design: scale not given: the % may be the effect or the level left. Particulars: probe DNP-SG, read-out: Activity.

The target in series [2] is T1, Solute carrier organic anion transporter family member 1A1. Description: TP_TRANSPORTER: inhibition of LTC4 uptake (LTC4: 0.01uM, p-Chlorophenacyl-SG: 1000 uM) in Xenopus laevis oocytes. The note with it: probe LTC4, read-out: Activity. In kind it is functional, cell-based, Oocyte. Further details: scale not given: the % may be the effect or the level left.
Series [3] has the same target. Description: TP_TRANSPORTER: inhibition of LTC4 uptake (LTC4: 0.01uM, Ouabain: 500 uM) in Xenopus laevis oocytes. In kind it is functional, cell-based, Oocyte. More on the design: scale not given: the % may be the effect or the level left. Particulars: probe LTC4, read-out: Activity.
Series [4] has the same target. Description: TP_TRANSPORTER: inhibition of DNP-SG uptake (DNP-SG: 50 uM, Ouabain: 500 uM) in Xenopus laevis oocytes. It is filed as functional, cell-based, Oocyte. More on the design: scale not given: the % may be the effect or the level left. Particulars: probe DNP-SG, read-out: Activity.
Series [5] shares this target. Description: TP_TRANSPORTER: inhibition of LTC4 uptake (LTC4: 0.01uM, Bilirubin ditaurate: 500 uM) in Xenopus laevis oocytes. It is filed as functional, cell-based, Oocyte. Further details: scale not given: the % may be the effect or the level left. The note with it: probe LTC4, read-out: Activity.
For series [6] the target is unchanged. Description: TP_TRANSPORTER: inhibition of DNP-SG uptake (DNP-SG: 50 uM, Bilirubin ditaurate: 500 uM) in Xenopus laevis oocytes. Particulars: probe DNP-SG, read-out: Activity. More on the design: scale not given: the % may be the effect or the level left. It is filed as functional, cell-based, Oocyte.
The target is the same in series [7]. The series can be described thus: TP_TRANSPORTER: inhibition of LTC4 uptake (LTC4: 0.01uM, DNP-SG: 1000 uM) in Xenopus laevis oocytes. The note with it: oocyte. In kind it is functional, cell-based. More on the design: scale not given: the % may be the effect or the level left.
Series [8] shares this target. The series can be described thus: TP_TRANSPORTER: inhibition of LTC4 uptake (LTC4: 0.01uM, DIDS: 250 uM) in Xenopus laevis oocytes. In kind it is functional, cell-based, Oocyte. More on the design: scale not given: the % may be the effect or the level left. The note with it: probe LTC4, read-out: Activity.
The target is the same in series [9]. The series can be described thus: TP_TRANSPORTER: inhibition of DNP-SG uptake (DNP-SG: 50 uM, DIDS: 250 uM) in Xenopus laevis oocytes. It is filed as functional, cell-based, Oocyte. Further details: scale not given: the % may be the effect or the level left. Particulars: probe DNP-SG, read-out: Activity.
Series [10] has the same target. The series can be described thus: TP_TRANSPORTER: inhibition of LTC4 uptake (LTC4: 0.01uM, BSP: 250 uM) in Xenopus laevis oocytes. In kind it is functional, cell-based, Oocyte. Further details: scale not given: the % may be the effect or the level left. The note with it: probe LTC4, read-out: Activity.
The target is the same in series [11]. Description: TP_TRANSPORTER: inhibition of DNP-SG uptake (DNP-SG: 50 uM, BSP: 250 uM) in Xenopus laevis oocytes. It is filed as functional, cell-based. More on the design: scale not given: the % may be the effect or the level left. The note with it: oocyte.
Substrate in series [12]: CCCCC/C=C\C\C=C/C=C/C=C/[C@@H](SC[C@@H](NC(=O)CC[C@H](N)C(=O)O)C(=O)NCC(=O)O)[C@@H](O)CCCC(=O)O
Description: (§1) TP_TRANSPORTER: uptake in Xenopus laevis oocytes. In kind it is functional, cell-based, Oocyte.

Substrate in series [13]: N[C@@H](CCC(=O)N[C@H](CSc1ccc([N+](=O)[O-])cc1[N+](=O)[O-])C(=O)NCC(=O)O)C(=O)O
Described as §1. It is filed as functional, cell-based, Oocyte.

Turning to `NC(CCC(=O)N[C@@H](CSCC(=O)c1ccc(Cl)cc1)C(=O)NCC(=O)O)C(=O)O` (stereo partly drawn), the figures for the activity at 1000 µM in [1] and in series [2] were 31% and 23%, respectively.
For the molecule `C[C@@H]1O[C@@H](O[C@H]2C[C@@H](O)[C@]3(CO)[C@H]4[C@H](O)C[C@]5(C)[C@@H](C6=CC(=O)OC6)CC[C@]5(O)[C@@H]4CC[C@]3(O)C2)[C@H](O)[C@H](O)[C@H]1O` [OUABAIN], the activity at 500 µM in [3] turned out to be 52%; in [4], 61%.
With `C=CC1=C(C)/C(=C/c2[nH]c(Cc3[nH]c(/C=C4\NC(=O)C(C)=C4C=C)c(C)c3CCC(=O)NCCS(=O)(=O)O)c(CCC(=O)NCCS(=O)(=O)O)c2C)NC1=O` [BILIRUBIN DITAURATE], the activity at 500 µM amounted to 4% in series [5] and 6% in series [6].
As for `N[C@@H](CCC(=O)N[C@H](CSc1ccc([N+](=O)[O-])cc1[N+](=O)[O-])C(=O)NCC(=O)O)C(=O)O`, the Activity in series [7] worked out at 15%.
`O=S(=O)(O)c1cc(N=C=S)ccc1/C=C/c1ccc(NC=S)cc1S(=O)(=O)O`: the activity at 250 µM in series [8] was determined as 25%; in series [9] it was 39%.
`O=C1OC(c2ccc(O)c(S(=O)(=O)[O-])c2)(c2ccc(O)c(S(=O)(=O)[O-])c2)c2c(Br)c(Br)c(Br)c(Br)c21.[Na+].[Na+]` [SULFOBROMOPHTHALEIN SODIUM]: the activity at 250 µM in series [10] is below 2%. Besides, in series [11], the Activity is reported as below 2%.

B1: Solute carrier organic anion transporter family member 1A1 (Rattus norvegicus) (protein)
chain: T1 sequence (P46720 whole entry)
As for B1, the Km in series [12] was determined as 0.27 µM; in [13], 408 µM.
